Here are results for 126 compounds from a melting point compilation (Tetko et al.).

Each structure is given as a SMILES string. Where only a bound is given, the exact number is not on record here.

Take `CN(C)C(=O)COc1ccc(N)c(F)c1`: the melting point – broadly, the temperature, or range, at which the solid turns liquid – lay within 106 to 108 °C.

Consider `Clc1cncc(OCc2ccccc2)n1`, for which the melting point was 47 to 49 °C.

Take `O=C(O)CN1C(=O)C2CCCCC2C1=O` (stereo unspecified): the melting point is 88 to 90 °C.

The compound `O=C(O)Cc1csc2nccn12` displayed a melting point of 259 to 261 °C.

`O=C1CCc2cc(Br)ccc2N1`: the melting point lay in the range of 169 to 171 °C.

The compound `Cc1nnc(Cl)c2ccccc12` gave a melting point of 123 to 125 °C.

Take `Cc1ccccc1-c1nonc1N`: the melting point lay in the range of 88 to 90 °C.

As for `COC(=O)CCc1nnc(N)s1`, the melting point was in the range of 135 to 137 °C.

Compound `NC(=S)/C(=C/c1ccccc1O)C(=O)O` had a melting point of 243 to 245 °C.

`Cc1cc(N)nc(C(C)C)n1`: the melting point fell in the range of 196 to 198 °C.

As to `N#Cc1ccc(N2CCC(C(=O)O)CC2)nc1`, the melting point was in the range of 174 to 176 °C.

As for `CS(=O)(=O)c1ccc(Cl)c(S(=O)(=O)Cl)c1`, the melting point was in the range of 141 to 143 °C.

In turn, `Cc1cc(Cl)c2cc(Br)cc(C)c2n1` registered a melting point of 134 to 136 °C.

Regarding `Nc1cccc(-n2ccnc2S)c1`, the melting point fell in the range of 176 to 178 °C.

As to `O=C1c2ccccc2S(=O)(=O)N1CCl`, the melting point was in the range of 145 to 147 °C.

In turn, `N#Cc1cccnc1N1CCCC1` yielded a melting point of 36 to 38 °C.

With `NC(=O)NC(=O)OCCCl`, the melting point lay within 185 to 187 °C.

`Cc1cccnc1NC1CCCCC1` returned a melting point of 81 to 83 °C.

Compound `O=C(O)C1CCN1Cc1ccccc1` (stereo unspecified) registered a melting point of 176 to 178 °C.

With `N#Cc1ccc(C2OCCO2)cc1`, the melting point was 45 to 47 °C.

Consider `COc1ccc(CC#N)cn1`, for which the melting point lay in the range of 49 to 51 °C.

Take `FC(F)(F)c1ccc2nnc(C3CCCNC3)n2c1` (stereo unspecified): the melting point is 226 to 228 °C.

`Cc1c(C(=O)O)nnn1-c1ccccc1` came in with a melting point of 110 to 112 °C.

Compound `Cc1ccc(-n2nc(C)c(NC(=O)OCC(F)(F)F)c2C)cc1` returned a melting point of 145 to 147 °C.

`CC(O)CNc1cc(Cl)ncn1` (stereo unspecified) displayed a melting point of 101 to 103 °C.

The compound `Clc1cc(SCc2ccccc2)ccn1` came in with a melting point of 61 to 63 °C.

`COc1ccc(Cl)c(S(=O)(=O)Cl)c1` returned a melting point of 41 to 43 °C.

As to `Cc1nc(C)c(CCl)s1`, the melting point was 62 to 64 °C.

As for `CN(CC(N)=S)C(=O)OC(C)(C)C`, the melting point lay in the range of 149 to 151 °C.

`O=C(O)c1ccc(NCCO)cc1` had a melting point of 196 to 198 °C.

In turn, `O=S1(=O)Nc2cccc3cccc1c23` returned a melting point of 175 to 177 °C.

Consider `O=C(C=NO)Nc1ccc2c(c1)OCCO2`, for which the melting point was in the range of 130 to 132 °C.

For the compound `Cc1ccc(C)c(-n2ccnc2S)c1`, the melting point lay in the range of 192 to 194 °C.

`COc1ccc(NC(=O)/C=N/O)cc1`: the melting point lay in the range of 180 to 182 °C.

Take `CC1CN(C(=O)c2ccccc2N)CC(C)O1` (stereo unspecified): the melting point is 119 to 121 °C.

`Nc1ccccc1N1CCN(CCc2ccncc2)CC1`: the melting point is 119 to 121 °C.

`CCc1nc(N)sc1C(=O)O` showed a melting point of 154 to 156 °C.

As for `NC(=S)Cc1ccc(F)cc1`, the melting point was 109 to 111 °C.

On to `Cc1csc(=O)n1CCCC(=O)O`, for which the melting point lay in the range of 97 to 99 °C.

`Cc1nn(-c2ccccc2)c(Cl)c1CO` returned a melting point of 89 to 91 °C.

Take `O=C(O)CCOc1ccccc1[N+](=O)[O-]`: the melting point was in the range of 121 to 123 °C.

As for `CCOC(=O)c1cnn(-c2ccc(C(F)(F)F)cn2)c1C(F)(F)F`, the melting point was 98 to 100 °C.

`Cc1nnc(S)n1CCS(C)(=O)=O` showed a melting point of 193 to 195 °C.

As to `O=C(O)c1ccccc1SC1CCS(=O)(=O)C1` (stereo unspecified), the melting point was 165 to 167 °C.

In turn, `O=C1NC2CCCCCCC12` (stereo unspecified) gave a melting point of 64 to 66 °C.

`Clc1nnc(-c2ccccc2Cl)s1` yielded a melting point of 93 to 95 °C.

Take `COC(=O)c1ccc(F)c(C)c1N`: the melting point is 35 to 37 °C.

In the case of `CC(=O)NCC(=O)NCC(=O)O`, the melting point is 174 to 176 °C.

As to `Nc1nnc(C2Cc3ccccc3O2)o1` (stereo unspecified), the melting point was in the range of 198 to 200 °C.

In turn, `Cn1cc(C(=O)O)c(C(F)(F)F)n1` registered a melting point of 210 to 212 °C.

For `Clc1cnc(Cl)nc1`, the melting point is 55 to 57 °C.

In turn, `CC(=O)c1cnc2ccsc2c1` had a melting point of 132 to 134 °C.

Regarding `O=c1c2ccccc2nc(O)n1-c1ccccc1`, the melting point fell in the range of 217 to 220 °C.

As for `COc1ccc(C(=O)O)cc1-c1ccccn1`, the melting point is 226 to 228 °C.

Turning to `O=C(O)C1CC2CCCCC2N1C(=O)c1ccc(F)cc1F` (stereo unspecified), the melting point was in the range of 189 to 191 °C.

For `Cc1nn(C)c(C(F)(F)Cl)c1C(=O)O`, the melting point lay within 122 to 124 °C.

As for `Nc1ncc(C(F)(F)F)cc1Cl`, the melting point lay in the range of 86 to 90 °C.

`O=C(O)C1(c2ccc(O)cc2)CCOCC1` yielded a melting point of 170 to 172 °C.

The compound `Cc1c(C(=O)O)oc2c(F)cccc12` returned a melting point of 236 to 238 °C.

`O=C(O)C=Cc1ccc2ccccc2n1` had a melting point of 169 to 171 °C.

Compound `O=C(O)c1ccc(S(=O)(=O)N2CCc3ccccc3C2)cc1` registered a melting point of 272 to 274 °C.

With `Cc1cc(Br)c(S(=O)(=O)Cl)c(Br)c1`, the melting point is 124 to 126 °C.

`Nc1nc(CCl)nc2sc3c(c12)CCCCC3` displayed a melting point of 174 to 176 °C.

The compound `CC(C)Oc1ccc(C(N)=S)cc1` yielded a melting point of 152 to 154 °C.

The compound `Cc1cc(Cl)n2ncnc2n1` gave a melting point of 220 to 222 °C.

As to `COC(=O)c1ccccc1-c1ccc(C=O)o1`, the melting point was in the range of 68 to 72 °C.

For `NC(=O)c1ccc(N2CCC(C(=O)O)CC2)nc1`, the melting point was 284 to 286 °C.

As for `O=C(O)c1ccc(Cn2ccccc2=O)o1`, the melting point was 199 to 201 °C.

In turn, `NNC(=O)c1cc(F)ccc1Br` returned a melting point of 149 to 151 °C.

`C#CCNC(=O)Nc1ccccc1F` gave a melting point of 134 to 136 °C.

In turn, `Cn1ncnc1COc1ccc(S(N)(=O)=O)cc1` yielded a melting point of 176 to 178 °C.

Consider `O=Cc1ccc(-n2ccnc2)c(F)c1`, for which the melting point fell in the range of 69 to 71 °C.

As for `Cc1ccccc1N(CC(=O)O)S(C)(=O)=O`, the melting point is 109 to 111 °C.

As to `NC1CCN(c2ncccn2)CC1`, the melting point lay in the range of 82 to 84 °C.

For `CC(=O)CC(=O)c1cccc(Cl)c1`, the melting point lay in the range of 39 to 41 °C.

Consider `Cc1cccc(C)c1C(C)O` (stereo unspecified), for which the melting point fell in the range of 59 to 61 °C.

Regarding `CC(C)(C)C(=O)NO`, the melting point was 169 to 171 °C.

In turn, `O=C(O)CC(=O)Nc1nccs1` registered a melting point of 181 to 183 °C.

Compound `CCCCc1nc2cc(NC(C)=O)ccc2[nH]1` had a melting point of 192 to 194 °C.

As to `COc1cc(C)c(C(C)=O)cc1C`, the melting point was in the range of 74 to 76 °C.

Compound `NC(=O)c1cc(N2CCCCC2)ccc1N` yielded a melting point of 168 to 170 °C.

With `O=S1(=O)C=C(Nc2ccccc2)CC1`, the melting point is 153 to 155 °C.

Regarding `CNc1ncccc1C(=O)O`, the melting point is 220 to 222 °C.

The compound `O=C(O)CCS(=O)(=O)c1ccc(Br)cc1` displayed a melting point of 151 to 153 °C.

Compound `Cn1cc(S(=O)(=O)Cl)cn1` gave a melting point of 48 to 50 °C.

`COc1cc(C#N)ccc1OCCCl` displayed a melting point of 95 to 97 °C.

For the compound `OCc1nccc(Cl)c1Cl`, the melting point lay within 59 to 61 °C.

`N#Cc1cc(C2CC2)ccn1` gave a melting point of 60 to 62 °C.

On to `Nc1nnc(-c2ccc(F)cc2)o1`, for which the melting point is 246 to 248 °C.

On to `CC(=O)NCCNC(=O)c1ccccc1N`, for which the melting point was in the range of 128 to 130 °C.

For `CCOc1ccccc1OCC(=O)NN`, the melting point lay in the range of 94 to 96 °C.

`Cc1cccc(-c2nnc(C(C)Cl)o2)c1` (stereo unspecified) gave a melting point below 17 °C.

For the compound `CCS(=O)(=O)Nc1ccc(N)cc1OC`, the melting point is 129 to 131 °C.

Turning to `NNC(=O)c1cc(Br)ccc1O`, the melting point lay in the range of 222 to 224 °C.

`CC(Cl)C(=O)NC12CC3CC(CC(C3)C1)C2` (stereo unspecified) returned a melting point of 103 to 105 °C.

For `NC(Cc1ccccc1)CN1CCOCC1` (stereo unspecified), the melting point is 54 to 56 °C.

Regarding `O=C1CCc2cc(C(=O)CCl)ccc2N1`, the melting point was in the range of 212 to 214 °C.

Turning to `CS(=O)(=O)Nc1cccc(OCCN)c1`, the melting point was 134 to 136 °C.

`CN(CCO)c1ccc(N)nc1` came in with a melting point of 82 to 84 °C.

`CC(C)(C)OC(=O)N1CCC(Oc2ccccc2)(C(=O)O)CC1` returned a melting point of 103 to 105 °C.

As to `O=C(O)CCCNC(=O)c1ccc(Cl)cc1`, the melting point was in the range of 108 to 110 °C.

`CCOC(=O)c1oc(N)nc1C` displayed a melting point of 219 to 221 °C.

In turn, `C#CCN1C(=O)C(=O)c2ccccc21` had a melting point of 153 to 155 °C.

`O=C(CCl)NCc1ccccc1CS(=O)(=O)N1CCOCC1` returned a melting point of 118 to 120 °C.

`O=c1[nH]c(-c2cccs2)no1` came in with a melting point of 183 to 185 °C.

`N#Cc1cnn(-c2ccc(C(=O)O)cc2)c1N` displayed a melting point of 289 to 291 °C.

For `CC(C)(C)n1cc(C#N)cc1N`, the melting point is 105 to 107 °C.

The compound `COc1ccc(C)cc1NCCC(=O)O` registered a melting point of 77 to 79 °C.

`O=C(O)C=Cc1cncc(F)c1` came in with a melting point of 234 to 236 °C.

In the case of `Nc1ncn(Cc2ccccc2)n1`, the melting point is 130 to 132 °C.

`O=C(O)COc1ccc2ccc(=O)oc2c1` registered a melting point of 213 to 215 °C.

For `Cc1cccc(NC(=O)CCl)c1`, the melting point is 128 to 130 °C.

As for `O=c1ccnc(-c2cccc(O)c2)[nH]1`, the melting point was 229 to 231 °C.

In turn, `Sc1nnnc2ccccc12` displayed a melting point of 183 to 185 °C.

In turn, `CN1CCC(=O)Nc2cc(F)ccc21` returned a melting point of 143 to 145 °C.

In turn, `CNC(=O)C1(C(=O)O)CCC1` gave a melting point of 144 to 146 °C.

With `Cc1ccc(C)c(-n2cnc(O)n2)c1`, the melting point was in the range of 166 to 168 °C.

Take `O=C(O)Cn1c(-c2cccc(Cl)c2Cl)nc2ccccc21`: the melting point lay within 235 to 237 °C.

`Cc1nc(Cl)c2c3c(sc2n1)CCC3` had a melting point of 91 to 93 °C.

Compound `CCOC(=O)Cn1cc(Br)ccc1=O` showed a melting point of 81 to 83 °C.

Regarding `Cn1cc(N2CCNCC2=O)cn1`, the melting point lay within 123 to 125 °C.

As for `Cc1nc(S)oc1C`, the melting point lay in the range of 132 to 134 °C.

Regarding `Nc1[nH]nc(-c2ccccc2)c1-c1ccccc1`, the melting point fell in the range of 141 to 143 °C.

In turn, `CC(C)(C)c1ccc(C(O)CN)cc1` (stereo unspecified) yielded a melting point of 125 to 127 °C.

In turn, `CN(Cc1ccccc1)C(=O)NCCC(=O)O` came in with a melting point of 120 to 122 °C.

As to `CC(NC(=O)c1ccc(Br)s1)C(=O)O` (stereo unspecified), the melting point was 135 to 137 °C.
